Measurements published in ChEMBL document CHEMBL1201862, “PubChem BioAssay data set” (2004).
Calls of active or inactive are those of the source.

Experiments:
[1] = target: Serine/threonine-protein phosphatase PP1-alpha catalytic subunit (Homo sapiens, UniProt P62136); assay: PP1 phosphatase inhibitors, dose response, biochemical, fluorescence (AID 2394)
[2] = target: T1, Serine/threonine-protein phosphatase (Homo sapiens, UniProt Q9BPW0); assay: PP5 phosphatase inhibitors, dose response, biochemical, fluorescence (AID 2395)
T1 sequence (Q9BPW0 whole entry): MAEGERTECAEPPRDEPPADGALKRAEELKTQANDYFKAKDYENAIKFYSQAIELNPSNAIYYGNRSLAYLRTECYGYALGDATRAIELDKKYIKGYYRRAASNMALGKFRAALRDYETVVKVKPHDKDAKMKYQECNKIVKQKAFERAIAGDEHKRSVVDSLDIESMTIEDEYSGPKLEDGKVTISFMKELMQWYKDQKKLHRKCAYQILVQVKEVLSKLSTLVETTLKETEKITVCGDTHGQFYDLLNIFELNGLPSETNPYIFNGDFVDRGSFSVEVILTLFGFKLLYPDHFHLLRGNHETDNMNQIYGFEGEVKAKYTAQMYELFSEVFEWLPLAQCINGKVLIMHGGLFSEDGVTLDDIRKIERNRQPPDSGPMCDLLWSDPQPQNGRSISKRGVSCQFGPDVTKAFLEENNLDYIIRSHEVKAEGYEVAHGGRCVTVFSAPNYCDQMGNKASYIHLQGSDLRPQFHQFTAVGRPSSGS

[3] = target: T2, Apoptotic protease-activating factor 1 (Homo sapiens, UniProt O14727); type: functional
T2 sequence (O14727 whole entry): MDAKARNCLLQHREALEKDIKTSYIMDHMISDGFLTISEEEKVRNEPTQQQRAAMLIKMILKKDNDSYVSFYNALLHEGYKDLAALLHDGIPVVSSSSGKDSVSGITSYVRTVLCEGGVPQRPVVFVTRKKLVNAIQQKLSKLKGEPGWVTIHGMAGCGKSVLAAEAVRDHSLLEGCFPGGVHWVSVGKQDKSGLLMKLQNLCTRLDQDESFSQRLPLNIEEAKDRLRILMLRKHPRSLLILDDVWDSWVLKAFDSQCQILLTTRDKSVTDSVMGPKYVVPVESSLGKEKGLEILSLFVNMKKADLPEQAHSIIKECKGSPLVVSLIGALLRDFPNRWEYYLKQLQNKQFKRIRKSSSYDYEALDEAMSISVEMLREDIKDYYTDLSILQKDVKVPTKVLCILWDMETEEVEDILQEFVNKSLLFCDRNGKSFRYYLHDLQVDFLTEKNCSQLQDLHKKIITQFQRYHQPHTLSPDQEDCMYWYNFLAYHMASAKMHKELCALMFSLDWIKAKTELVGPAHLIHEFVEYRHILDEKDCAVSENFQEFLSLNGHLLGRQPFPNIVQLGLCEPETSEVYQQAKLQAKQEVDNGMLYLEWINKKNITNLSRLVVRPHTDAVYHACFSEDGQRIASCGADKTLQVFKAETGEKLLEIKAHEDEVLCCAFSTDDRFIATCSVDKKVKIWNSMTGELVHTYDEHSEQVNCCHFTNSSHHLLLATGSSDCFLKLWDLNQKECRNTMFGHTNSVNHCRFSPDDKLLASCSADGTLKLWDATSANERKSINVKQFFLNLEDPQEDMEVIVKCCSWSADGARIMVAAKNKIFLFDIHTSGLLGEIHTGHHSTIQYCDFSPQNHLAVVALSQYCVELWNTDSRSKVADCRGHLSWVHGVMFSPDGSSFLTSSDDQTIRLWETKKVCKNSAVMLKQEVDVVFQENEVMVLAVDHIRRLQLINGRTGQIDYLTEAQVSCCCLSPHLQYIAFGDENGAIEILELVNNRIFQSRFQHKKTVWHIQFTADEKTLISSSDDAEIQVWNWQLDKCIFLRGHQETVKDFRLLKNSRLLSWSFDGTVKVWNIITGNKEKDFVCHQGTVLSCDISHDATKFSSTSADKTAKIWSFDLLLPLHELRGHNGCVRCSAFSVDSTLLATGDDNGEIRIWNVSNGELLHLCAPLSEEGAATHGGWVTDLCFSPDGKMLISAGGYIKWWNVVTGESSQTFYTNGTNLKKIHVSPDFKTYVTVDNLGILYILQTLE

[4] = target: Ras and Rab interactor 1/Tyrosine-protein kinase ABL1 (Homo sapiens, UniProt P00519+Q13671); type: functional;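 note: biochemical TR-FRET dose-response test measuring inhibition of binding between Rin1 and Abl proteins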
[5] = target: T3, Histone-lysine N-methyltransferase NSD2 (Homo sapiens, UniProt O96028); type: biochemical
T3 sequence (O96028 whole entry): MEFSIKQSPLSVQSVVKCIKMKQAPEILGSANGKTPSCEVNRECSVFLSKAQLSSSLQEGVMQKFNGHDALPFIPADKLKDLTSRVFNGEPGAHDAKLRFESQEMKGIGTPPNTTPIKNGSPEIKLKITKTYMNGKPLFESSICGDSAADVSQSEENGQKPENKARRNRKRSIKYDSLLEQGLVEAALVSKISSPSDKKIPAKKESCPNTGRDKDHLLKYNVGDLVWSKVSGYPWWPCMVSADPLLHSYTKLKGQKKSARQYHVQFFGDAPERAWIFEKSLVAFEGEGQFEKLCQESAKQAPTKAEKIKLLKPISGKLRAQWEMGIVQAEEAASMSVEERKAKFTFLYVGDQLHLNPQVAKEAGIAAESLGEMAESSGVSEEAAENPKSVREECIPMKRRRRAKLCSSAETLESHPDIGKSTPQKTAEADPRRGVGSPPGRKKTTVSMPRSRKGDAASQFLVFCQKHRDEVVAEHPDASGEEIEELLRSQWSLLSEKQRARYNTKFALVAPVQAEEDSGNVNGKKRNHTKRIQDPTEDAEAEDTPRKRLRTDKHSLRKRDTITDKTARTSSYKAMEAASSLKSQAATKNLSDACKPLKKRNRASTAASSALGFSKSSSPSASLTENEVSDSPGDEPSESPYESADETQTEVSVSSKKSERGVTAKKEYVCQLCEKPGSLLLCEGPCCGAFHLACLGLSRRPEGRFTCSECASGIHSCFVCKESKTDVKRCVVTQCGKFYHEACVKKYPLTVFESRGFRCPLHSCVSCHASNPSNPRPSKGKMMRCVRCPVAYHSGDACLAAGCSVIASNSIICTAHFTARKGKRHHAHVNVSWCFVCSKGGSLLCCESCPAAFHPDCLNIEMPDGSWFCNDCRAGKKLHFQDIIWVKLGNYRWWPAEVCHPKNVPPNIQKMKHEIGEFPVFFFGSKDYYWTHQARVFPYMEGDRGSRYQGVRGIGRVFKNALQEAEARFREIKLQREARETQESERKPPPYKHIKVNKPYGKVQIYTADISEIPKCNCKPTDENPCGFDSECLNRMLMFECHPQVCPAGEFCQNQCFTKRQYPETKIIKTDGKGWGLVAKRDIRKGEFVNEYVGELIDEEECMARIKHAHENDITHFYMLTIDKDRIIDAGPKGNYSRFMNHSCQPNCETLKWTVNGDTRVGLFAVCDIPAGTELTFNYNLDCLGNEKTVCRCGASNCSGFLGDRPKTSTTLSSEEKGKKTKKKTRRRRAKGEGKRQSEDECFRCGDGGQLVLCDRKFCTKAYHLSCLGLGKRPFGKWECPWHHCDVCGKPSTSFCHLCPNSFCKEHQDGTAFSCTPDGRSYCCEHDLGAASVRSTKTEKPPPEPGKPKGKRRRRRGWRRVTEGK

[6] = target: T4, Tyrosyl-DNA phosphodiesterase 2 (Homo sapiens, UniProt O95551); assay: human TDP2 enzyme inhibitors, dose response, biochemical, epi absorbance, IC50 (AID 743297)
T4 sequence (O95551 whole entry): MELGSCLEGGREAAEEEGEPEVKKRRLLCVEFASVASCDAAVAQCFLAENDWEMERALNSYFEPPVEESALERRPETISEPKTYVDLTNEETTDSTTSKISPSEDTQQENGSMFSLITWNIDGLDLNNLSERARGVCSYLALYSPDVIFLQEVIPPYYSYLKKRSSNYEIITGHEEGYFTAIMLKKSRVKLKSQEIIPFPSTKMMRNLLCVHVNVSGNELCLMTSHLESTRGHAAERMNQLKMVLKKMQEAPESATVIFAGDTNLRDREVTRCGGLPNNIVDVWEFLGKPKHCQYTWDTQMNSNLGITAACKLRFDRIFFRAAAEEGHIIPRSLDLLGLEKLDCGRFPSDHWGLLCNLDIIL

Leucine aminopeptidase = target: T5, Leucine aminopeptidase (Plasmodium falciparum 3D7, UniProt Q8IL11); assay: P. falciparum M17LAP inhibitors, primary screen, biochemical, fluorogenic H-Leu-NHMec substrate, 1536-well (AID 1619); type: functional
T5 sequence (Q8IL11 whole entry): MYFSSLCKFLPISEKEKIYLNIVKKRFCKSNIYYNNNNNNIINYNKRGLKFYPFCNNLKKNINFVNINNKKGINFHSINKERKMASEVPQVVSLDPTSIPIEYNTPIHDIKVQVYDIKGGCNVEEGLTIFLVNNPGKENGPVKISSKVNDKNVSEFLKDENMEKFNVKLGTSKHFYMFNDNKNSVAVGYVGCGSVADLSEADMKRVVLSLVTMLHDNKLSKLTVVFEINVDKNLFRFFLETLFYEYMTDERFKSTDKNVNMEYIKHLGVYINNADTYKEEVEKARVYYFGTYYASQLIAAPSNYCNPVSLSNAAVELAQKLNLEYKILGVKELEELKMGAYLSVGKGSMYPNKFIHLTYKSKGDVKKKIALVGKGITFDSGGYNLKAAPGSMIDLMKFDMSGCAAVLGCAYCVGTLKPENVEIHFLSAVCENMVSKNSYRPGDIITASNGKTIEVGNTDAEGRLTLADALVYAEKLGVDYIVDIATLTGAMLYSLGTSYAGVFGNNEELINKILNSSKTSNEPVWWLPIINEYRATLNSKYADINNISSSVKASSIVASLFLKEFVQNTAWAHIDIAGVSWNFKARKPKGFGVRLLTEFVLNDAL

Aspartyl aminopeptidase = target: T6, Aspartyl aminopeptidase (Plasmodium falciparum 3D7, UniProt Q8I2J3); assay: Counterscreen for inhibitors of M1 and M17 aminopeptidases: QFRET-based biochemical high throughput dose response assay for inhibitors of the Plasmodium falciparum M18 Aspartyl Aminopeptidase (PFM18AAP). [Related PubChem assays: 1619 (Screening assay (M17LAP inhibitors).), 1445 (Screening assay (M1AAP inhibitors).)]
T6 sequence (Q8I2J3 whole entry): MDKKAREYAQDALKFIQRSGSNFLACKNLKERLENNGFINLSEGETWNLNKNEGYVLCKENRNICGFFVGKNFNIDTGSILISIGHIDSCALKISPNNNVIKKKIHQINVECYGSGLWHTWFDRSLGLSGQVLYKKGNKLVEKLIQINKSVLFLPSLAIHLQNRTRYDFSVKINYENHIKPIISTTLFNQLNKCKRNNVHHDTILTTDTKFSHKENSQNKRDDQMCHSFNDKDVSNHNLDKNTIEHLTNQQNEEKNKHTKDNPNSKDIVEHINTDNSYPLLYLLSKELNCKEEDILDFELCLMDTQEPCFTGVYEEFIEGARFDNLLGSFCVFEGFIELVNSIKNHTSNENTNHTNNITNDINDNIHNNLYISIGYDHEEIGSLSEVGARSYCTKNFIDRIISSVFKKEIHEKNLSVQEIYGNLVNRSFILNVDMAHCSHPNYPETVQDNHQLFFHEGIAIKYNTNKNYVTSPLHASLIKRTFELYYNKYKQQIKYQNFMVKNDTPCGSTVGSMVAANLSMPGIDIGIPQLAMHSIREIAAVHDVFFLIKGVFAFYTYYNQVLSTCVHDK

Procathepsin L = Procathepsin L (Homo sapiens, UniProt P07711); assay: cathepsin L inhibitors, dose response, counter-screen for M1/M17 aminopeptidase inhibitor project, biochemical, QFRET, 1536-well (AID 2214)
Cytochrome P450 2C19 = Cytochrome P450 2C19 (Homo sapiens, UniProt P33261); assay: Cytochrome panel assay with activity outcomes. Panel member name: p450-cyp2c19 Compounds with AC50 equal or less than 10 uM are considered active; type: functional; conditions: read-out: AC50
Cytochrome P450 3A4 = Cytochrome P450 3A4 (Homo sapiens, UniProt P08684);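 note: CYP3A4 tested as one member of a cytochrome P450 panel screen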
Sequence of Cytochrome P450 3A4 (P08684 whole entry): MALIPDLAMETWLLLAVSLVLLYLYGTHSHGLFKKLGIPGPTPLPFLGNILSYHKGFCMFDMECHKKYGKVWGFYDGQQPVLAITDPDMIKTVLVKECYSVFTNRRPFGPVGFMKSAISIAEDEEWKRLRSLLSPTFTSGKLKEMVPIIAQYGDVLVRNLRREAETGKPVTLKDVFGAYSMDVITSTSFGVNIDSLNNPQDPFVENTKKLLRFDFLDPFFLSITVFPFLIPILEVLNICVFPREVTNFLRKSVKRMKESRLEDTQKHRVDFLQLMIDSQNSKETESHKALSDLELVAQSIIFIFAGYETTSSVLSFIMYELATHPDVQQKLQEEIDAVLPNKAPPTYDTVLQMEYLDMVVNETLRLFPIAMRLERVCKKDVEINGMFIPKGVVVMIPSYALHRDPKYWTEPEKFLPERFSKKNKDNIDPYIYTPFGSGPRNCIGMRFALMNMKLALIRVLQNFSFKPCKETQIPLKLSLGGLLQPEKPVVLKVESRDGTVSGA

Sequence of Procathepsin L (P07711 whole entry): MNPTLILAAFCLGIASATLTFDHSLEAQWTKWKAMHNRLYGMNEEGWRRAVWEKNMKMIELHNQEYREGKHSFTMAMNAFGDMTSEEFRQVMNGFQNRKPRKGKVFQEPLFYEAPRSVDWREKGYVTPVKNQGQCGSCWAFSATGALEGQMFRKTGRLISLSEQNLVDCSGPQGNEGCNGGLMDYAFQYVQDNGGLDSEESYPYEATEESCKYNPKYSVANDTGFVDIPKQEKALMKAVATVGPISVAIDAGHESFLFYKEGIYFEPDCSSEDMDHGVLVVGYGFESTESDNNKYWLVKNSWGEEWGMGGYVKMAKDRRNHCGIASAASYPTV
Sequence of Ras and Rab interactor 1/Tyrosine-protein kinase ABL1 (P00519 whole entry): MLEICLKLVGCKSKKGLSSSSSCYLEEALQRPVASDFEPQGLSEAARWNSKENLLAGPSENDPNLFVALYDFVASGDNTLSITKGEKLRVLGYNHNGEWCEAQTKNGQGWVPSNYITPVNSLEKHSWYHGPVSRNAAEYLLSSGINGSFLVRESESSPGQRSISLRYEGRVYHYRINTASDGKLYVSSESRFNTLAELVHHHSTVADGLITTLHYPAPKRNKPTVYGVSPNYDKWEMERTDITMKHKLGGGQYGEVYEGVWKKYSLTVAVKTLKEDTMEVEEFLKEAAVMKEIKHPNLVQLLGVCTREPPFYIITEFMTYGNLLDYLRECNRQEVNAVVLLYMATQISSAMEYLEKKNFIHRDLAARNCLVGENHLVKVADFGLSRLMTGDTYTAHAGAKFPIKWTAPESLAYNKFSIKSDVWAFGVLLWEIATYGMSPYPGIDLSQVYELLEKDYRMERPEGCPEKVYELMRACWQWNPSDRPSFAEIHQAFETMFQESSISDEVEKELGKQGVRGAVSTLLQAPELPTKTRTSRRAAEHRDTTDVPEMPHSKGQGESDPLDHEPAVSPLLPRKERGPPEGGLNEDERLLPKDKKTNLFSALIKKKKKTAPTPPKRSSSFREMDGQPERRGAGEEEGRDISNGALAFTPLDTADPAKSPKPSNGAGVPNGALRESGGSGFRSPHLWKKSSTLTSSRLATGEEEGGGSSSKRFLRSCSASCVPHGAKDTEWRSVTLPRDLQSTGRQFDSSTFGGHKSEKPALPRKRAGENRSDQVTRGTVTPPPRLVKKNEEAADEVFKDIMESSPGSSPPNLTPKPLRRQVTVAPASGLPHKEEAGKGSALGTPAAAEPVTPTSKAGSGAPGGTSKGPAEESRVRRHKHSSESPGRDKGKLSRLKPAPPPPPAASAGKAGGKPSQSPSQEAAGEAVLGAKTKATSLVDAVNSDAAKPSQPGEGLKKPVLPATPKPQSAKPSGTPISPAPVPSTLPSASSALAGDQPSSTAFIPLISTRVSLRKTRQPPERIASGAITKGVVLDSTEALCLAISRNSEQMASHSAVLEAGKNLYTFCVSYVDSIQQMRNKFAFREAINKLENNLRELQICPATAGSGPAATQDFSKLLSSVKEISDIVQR
Sequence of Ras and Rab interactor 1/Tyrosine-protein kinase ABL1 (Q13671 whole entry): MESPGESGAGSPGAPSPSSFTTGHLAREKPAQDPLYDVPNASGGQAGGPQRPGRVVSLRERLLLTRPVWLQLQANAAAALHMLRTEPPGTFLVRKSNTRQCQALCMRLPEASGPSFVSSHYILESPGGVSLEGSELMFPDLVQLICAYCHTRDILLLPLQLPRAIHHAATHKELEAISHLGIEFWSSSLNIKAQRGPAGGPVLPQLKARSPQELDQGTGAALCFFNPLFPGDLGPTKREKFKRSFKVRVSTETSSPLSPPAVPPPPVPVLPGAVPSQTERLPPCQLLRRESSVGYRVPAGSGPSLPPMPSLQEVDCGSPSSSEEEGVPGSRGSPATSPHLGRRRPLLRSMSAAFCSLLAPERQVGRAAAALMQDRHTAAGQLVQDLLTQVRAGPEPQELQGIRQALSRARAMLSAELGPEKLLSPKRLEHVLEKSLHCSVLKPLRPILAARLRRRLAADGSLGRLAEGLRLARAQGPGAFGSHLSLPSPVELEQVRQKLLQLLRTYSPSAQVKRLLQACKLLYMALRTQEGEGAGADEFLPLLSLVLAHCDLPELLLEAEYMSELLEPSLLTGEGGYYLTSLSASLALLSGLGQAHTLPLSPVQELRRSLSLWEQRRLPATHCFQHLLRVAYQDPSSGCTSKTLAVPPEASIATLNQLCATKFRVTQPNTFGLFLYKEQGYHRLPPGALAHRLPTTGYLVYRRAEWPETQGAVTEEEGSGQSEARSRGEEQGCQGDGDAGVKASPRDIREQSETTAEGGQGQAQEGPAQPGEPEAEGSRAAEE
Sequence of Cytochrome P450 2C19 (P33261 whole entry): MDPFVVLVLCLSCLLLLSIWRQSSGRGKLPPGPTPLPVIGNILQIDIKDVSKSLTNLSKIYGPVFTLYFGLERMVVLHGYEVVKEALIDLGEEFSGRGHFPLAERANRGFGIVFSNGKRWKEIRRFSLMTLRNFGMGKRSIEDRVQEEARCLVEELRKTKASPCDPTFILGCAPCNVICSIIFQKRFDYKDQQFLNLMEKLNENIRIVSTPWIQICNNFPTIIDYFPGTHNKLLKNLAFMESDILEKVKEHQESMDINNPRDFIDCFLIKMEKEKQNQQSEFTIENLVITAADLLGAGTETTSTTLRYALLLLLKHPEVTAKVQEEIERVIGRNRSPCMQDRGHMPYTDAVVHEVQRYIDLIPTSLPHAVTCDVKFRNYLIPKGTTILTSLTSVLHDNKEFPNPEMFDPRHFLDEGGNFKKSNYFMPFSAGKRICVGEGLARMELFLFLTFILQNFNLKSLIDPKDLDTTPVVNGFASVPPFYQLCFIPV
Sequence of Serine/threonine-protein phosphatase PP1-alpha catalytic subunit (P62136 whole entry): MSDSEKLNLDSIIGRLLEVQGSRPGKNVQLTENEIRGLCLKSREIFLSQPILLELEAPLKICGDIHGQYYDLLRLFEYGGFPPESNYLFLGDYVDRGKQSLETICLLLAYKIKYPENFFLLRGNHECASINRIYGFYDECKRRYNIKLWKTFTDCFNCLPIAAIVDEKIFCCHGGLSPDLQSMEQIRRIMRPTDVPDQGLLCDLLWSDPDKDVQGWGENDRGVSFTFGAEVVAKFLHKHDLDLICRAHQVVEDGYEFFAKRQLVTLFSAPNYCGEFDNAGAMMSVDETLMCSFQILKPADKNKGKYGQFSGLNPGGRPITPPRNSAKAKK

Row | IC50 [1] | IC50 [2] | IC50 [3] | IC50 [4] | AC50 [5] | IC50 [6] | Structure (SMILES) | IC50 (Leucine aminopeptidase) | IC50 (Aspartyl aminopeptidase) | IC50 (Procathepsin L) | AC50 (Cytochrome P450 2C19) | AC50 (Cytochrome P450 3A4)
1 | > 67 µM (not active) | > 22.3 µM (not active) | 9.72 µM (active) | > 73.5 µM (inactive) | 5.35 µM (active) | 9.1 µM (active) | CC(=O)C(C(C)=O)C1(O)C(=O)c2ccccc2C1=O | – | – | – | – | –
2 | – | – | – | – | – | – | Cc1ccc(-c2c(C)sc(NC(=O)C3C4CCC(O4)C3C(=O)O)c2C(=O)OC(C)C)cc1 (centres undefined) | 7.67 µM (active) | > 73.5 µM (not active) | > 59.6 µM (not active) | 28.2 µM (inconclusive) | 14.1 µM (inconclusive)
3 | – | – | – | – | – | – | O=C(O)Cc1ccc(NC(=O)Nc2cccc(Cl)c2)cc1 | 1.7 µM (active) | > 73.5 µM (not active) | > 59.6 µM (not active) | – | –
